Test results taken from PMC8546892 (Acta Pharmaceutica Sinica. B, 2021).
Residues, ends and D or L forms follow the SMILES beside them. *: point of attachment. Cbz = O=C(OCc1ccccc1)*

System: GSK-3β
Assay: Immunoblot of GSK-3β in Trib3-silenced AMs with MG132 or 3MA
Type: cell-based, mouse
Conditions: immunoblots, Fig. S4C

CC(C)C[C@@H](C=O)NC(=O)[C@H](CC(C)C)NC(=O)[C@H](CC(C)C)NC(=O)OCc1ccccc1 [MG132] (Cbz-Leu-Leu-Leu-aldehyde)
Trib3 depletion-induced reduction in GSK-3β expression: reversed
